Where a name gives a salt, the structure may show the parent alone.
How the values were obtained:
[1] = molecular target: PI3Kγ (p110γ) Recombinant Human Protein (Homo sapiens (Human), UniProt P48736); assay: PI3K-γ Scintillation Proximity Assay; assay type: biochemical; settings: read-out: PI3K-gamma SPA IC50
From the text: Example B. PI3K-γ Scintillation Proximity Assay
(§1) [γ-^33P]ATP (10 mCi/mL) and Wheat Germ Agglutinin (WGA) YSi SPA Scintillation Beads was purchased from Perkin-Elmer (Waltham, Mass.). Lipid kinase substrate, D-myo-Phosphatidylinositol 4,5-bisphosphate (PtdIns(4,5)P2)D (+)-sn-1,2-di-O-octanoylglyceryl, 3-O-phospho linked (PIP2), CAS 204858-53-7, was purchased from Echelon Biosciences (Salt Lake City, Utah). PI3Kγ (p110γ) Recombinant Human Protein was purchased from Life technology (Grand Island, N.Y.). ATP, MgCl2, DTT, EDTA, MOPS and CHAPS were purchased from Sigma-Aldrich (St. Louis, Mo.).
(§2) The kinase reaction was conducted in polystyrene 384-well Greiner Bio-one white plate from Thermo Fisher Scientific in a final volume of 25 μL. Inhibitors were first diluted serially in DMSO and added to the plate wells before the addition of other reaction components. The final concentration of DMSO in the assay was 2%. The PI3Kγ assay was carried out at room temperature in 20 mM MOPS, pH 6.7, 10 mM MgCl2, 5 mM DTT and CHAPS 0.03%. Reactions were initiated by the addition of ATP, the final reaction mixture consisted of 20 μM PIP2, 2 μM ATP, 0.5 μCi [γ-^33P] ATP, 13 nM PI3Kγ. Reactions were incubated for 120 min and terminated by the addition of 40 μL SPA beads suspended in quench buffer: 163 mM potassium phosphate pH 7.8, 20% glycerol, 25 mM EDTA. The final concentration of SPA beads is 1.0 mg/mL. After the plate sealing, plates were shaken overnight at room temperature and centrifuged at 1500 rpm for 10 min, the radioactivity of the product was determined by scintillation counting on Topcount (Perkin-Elmer). IC50 determination was performed by fitting the curve of percent of the solvent control activity versus the log of the inhibitor concentration using the GraphPad Prism 6.0 software.

[2] = molecular target: PI3Kδ (p110δ/p85α) Recombinant Human Protein (Homo sapiens (Human), UniProt O00329); assay: PI3Kδ Scintillation Proximity Assay; assay type: biochemical; settings: read-out: PI3K-delta SPA IC50
PI3Kδ (p110δ/p85α) Recombinant Human Protein, sequence (O00329 whole entry): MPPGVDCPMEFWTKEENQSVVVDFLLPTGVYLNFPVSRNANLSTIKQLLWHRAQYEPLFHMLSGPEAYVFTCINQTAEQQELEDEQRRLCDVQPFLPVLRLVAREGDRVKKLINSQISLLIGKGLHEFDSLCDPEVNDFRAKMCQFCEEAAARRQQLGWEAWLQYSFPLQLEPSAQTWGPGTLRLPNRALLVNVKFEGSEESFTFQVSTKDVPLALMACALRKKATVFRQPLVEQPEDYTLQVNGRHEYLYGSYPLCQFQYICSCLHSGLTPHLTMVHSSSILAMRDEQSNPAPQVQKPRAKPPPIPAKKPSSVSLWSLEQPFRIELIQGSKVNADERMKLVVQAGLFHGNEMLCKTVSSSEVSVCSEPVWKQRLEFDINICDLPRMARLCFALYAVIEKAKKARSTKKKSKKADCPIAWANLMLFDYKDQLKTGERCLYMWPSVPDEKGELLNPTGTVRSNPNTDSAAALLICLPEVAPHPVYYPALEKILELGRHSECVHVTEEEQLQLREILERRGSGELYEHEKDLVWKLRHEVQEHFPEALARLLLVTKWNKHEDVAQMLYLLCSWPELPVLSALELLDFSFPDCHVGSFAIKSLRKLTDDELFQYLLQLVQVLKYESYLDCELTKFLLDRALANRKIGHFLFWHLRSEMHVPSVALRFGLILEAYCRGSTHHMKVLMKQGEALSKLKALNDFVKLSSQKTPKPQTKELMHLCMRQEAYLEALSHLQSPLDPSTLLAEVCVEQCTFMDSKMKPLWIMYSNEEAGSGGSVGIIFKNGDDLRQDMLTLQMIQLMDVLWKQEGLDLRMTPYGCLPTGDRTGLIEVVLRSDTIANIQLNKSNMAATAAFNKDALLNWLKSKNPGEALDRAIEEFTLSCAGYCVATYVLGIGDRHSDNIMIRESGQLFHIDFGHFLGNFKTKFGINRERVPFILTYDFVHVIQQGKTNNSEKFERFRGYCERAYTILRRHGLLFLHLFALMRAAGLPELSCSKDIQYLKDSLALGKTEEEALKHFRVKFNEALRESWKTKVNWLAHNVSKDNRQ
PI3Kδ (p110δ/p85α) Recombinant Human Protein, sequence (P27986 whole entry partner): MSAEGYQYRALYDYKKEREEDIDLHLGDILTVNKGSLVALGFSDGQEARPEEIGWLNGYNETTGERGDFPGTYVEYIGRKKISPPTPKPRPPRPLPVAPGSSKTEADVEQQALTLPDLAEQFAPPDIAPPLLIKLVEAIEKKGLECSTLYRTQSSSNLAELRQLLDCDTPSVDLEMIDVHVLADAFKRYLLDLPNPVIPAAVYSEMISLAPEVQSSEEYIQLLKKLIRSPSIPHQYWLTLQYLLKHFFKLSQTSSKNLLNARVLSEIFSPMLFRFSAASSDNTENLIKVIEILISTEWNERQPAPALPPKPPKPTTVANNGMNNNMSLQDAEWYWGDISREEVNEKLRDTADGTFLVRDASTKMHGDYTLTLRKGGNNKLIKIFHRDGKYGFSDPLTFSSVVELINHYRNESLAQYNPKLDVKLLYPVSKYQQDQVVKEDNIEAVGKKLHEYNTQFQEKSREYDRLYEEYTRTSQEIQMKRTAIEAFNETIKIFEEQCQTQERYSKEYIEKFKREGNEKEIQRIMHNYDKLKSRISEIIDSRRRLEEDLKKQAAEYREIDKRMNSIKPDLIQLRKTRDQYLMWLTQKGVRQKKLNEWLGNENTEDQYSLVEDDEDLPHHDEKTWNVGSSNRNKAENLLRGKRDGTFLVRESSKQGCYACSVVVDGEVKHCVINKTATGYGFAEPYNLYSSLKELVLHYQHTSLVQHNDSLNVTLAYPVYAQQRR
From the text: Example C. PI3Kδ Scintillation Proximity Assay
as §1, with “PI3Kδ (p110δ/p85α)” for “PI3Kγ (p110γ)”, “Eurofins (St Charles, Mo.).” for “Life technology (Grand Island, N.Y.).”
as §2, with “PI3Kδ” for “PI3Kγ”, “3.4” for “13”, “PI3Kδ.” for “PI3Kγ.”

PI3Kγ (p110γ) Recombinant Human Protein, sequence (P48736 whole entry): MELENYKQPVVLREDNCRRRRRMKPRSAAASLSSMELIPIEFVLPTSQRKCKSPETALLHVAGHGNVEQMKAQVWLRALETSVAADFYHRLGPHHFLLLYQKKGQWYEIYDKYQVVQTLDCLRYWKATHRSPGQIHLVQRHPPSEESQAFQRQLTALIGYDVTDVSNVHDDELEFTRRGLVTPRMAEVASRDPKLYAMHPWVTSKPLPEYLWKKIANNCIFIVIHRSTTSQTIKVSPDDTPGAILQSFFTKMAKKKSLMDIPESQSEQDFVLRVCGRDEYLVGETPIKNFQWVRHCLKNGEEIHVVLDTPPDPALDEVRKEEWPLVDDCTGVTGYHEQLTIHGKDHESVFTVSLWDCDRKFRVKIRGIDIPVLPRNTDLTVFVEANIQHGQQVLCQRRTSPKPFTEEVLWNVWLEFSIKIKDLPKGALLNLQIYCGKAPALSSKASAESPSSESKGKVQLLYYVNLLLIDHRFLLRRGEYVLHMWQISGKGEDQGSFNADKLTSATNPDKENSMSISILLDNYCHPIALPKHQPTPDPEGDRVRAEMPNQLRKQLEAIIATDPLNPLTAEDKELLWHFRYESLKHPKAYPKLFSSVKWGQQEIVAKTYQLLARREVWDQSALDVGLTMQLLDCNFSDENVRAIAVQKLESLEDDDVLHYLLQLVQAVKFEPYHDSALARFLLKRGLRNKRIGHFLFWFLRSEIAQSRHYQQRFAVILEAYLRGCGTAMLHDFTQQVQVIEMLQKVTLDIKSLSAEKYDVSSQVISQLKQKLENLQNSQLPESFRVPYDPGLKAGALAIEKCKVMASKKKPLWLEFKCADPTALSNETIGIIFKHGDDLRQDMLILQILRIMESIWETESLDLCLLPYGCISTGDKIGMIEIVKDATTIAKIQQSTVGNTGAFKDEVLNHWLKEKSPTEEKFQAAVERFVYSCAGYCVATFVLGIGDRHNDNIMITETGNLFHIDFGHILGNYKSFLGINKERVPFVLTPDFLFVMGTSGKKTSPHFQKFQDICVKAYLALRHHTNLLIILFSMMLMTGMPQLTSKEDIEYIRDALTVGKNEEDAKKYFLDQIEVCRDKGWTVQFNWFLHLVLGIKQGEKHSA

Compound	IC50 [1] [µM]	IC50 [2] [µM]
c1ccc(-c2cnc(-c3cc(-c4cnn(C5CCNCC5)c4)ccn3)[nH]2)cc1 [Example 25, 2-(5-Phenyl-1H-imidazol-2-yl)-4-(1-(piperidin-4-yl)-1H-pyrazol-4-yl)pyridine trifluoroacetate salt]	> 0.5	> 0.5
Cc1nc(-c2cc(C3=CCN(Cc4ccccc4)C3)ccn2)[nH]c1C [Example 228, 4-(1-Benzyl-2,5-dihydro-1H-pyrrol-3-yl)-2-(4,5-dimethyl-1H-imidazol-2-yl)pyridine trifluoroacetate salt]	> 0.5	> 0.5
Cc1nc(-c2cc(-c3cncc(C(=O)N4CCCC(c5ccccc5)C4)c3)ccn2)[nH]c1C (racemic) [Example 188, 2′-(4,5-Dimethyl-1H-imidazol-2-yl)-5-[(3-phenylpiperidin-1-yl)carbonyl]-3,4′-bipyridine trifluoroacetate salt]	≤ 0.5	≤ 0.5
CC(=O)N1CCC(c2c[nH]c(-c3cc(-c4cnn(Cc5ccc(Cl)cc5)c4)ccn3)n2)C1 (stereo not drawn) [Example 303, 2-[4-(1-Acetylpyrrolidin-3-yl)-1H-imidazol-2-yl]-4-[l-(4-chlorobenzyl)-1H-pyrazol-4-yl]pyridine trifluoroacetate salt]	≤ 0.5	> 0.5
Cc1nc(-c2cc(-c3cncc(C(=O)NCC4CCOCC4)c3)ccn2)[nH]c1C [Example 162, 2′-(4,5-Dimethyl-1H-imidazol-2-yl)-N-((tetrahydro-2H-pyran-4-yl)methyl)-3,4′-bipyridine-5-carboxamide trifluoroacetate salt]	≤ 0.5	≤ 0.5
Cc1nc(-c2cc(C3=CCCN(CC4CCOCC4)C3)ccn2)[nH]c1C [Example 225, 2-(4,5-Dimethyl-1H-imidazol-2-yl)-4-(1-((tetrahydro-2H-pyran-4-yl)methyl)-1,2,5,6-tetrahydropyridin-3-yl)pyridine trifluoroacetate salt]	> 0.5	> 0.5
N#Cc1cccc(C(=O)Nc2cncc(-c3ccnc(-c4ncc(-c5ccccc5)[nH]4)c3)c2)c1 [Example 136, 3-Cyano-N-(2′-(5-phenyl-1H-imidazol-2-yl)-3,4′-bipyridin-5-yl)benzamide]	≤ 0.5	≤ 0.5
O=C(O)CCn1cc(-c2ccnc(-c3ncc(-c4ccccc4)[nH]3)c2)cn1 [Example 57, 3-(4-(2-(5-Phenyl-1H-imidazol-2-yl)pyridin-4-yl)-1H-pyrazol-1-yl)propanoic acid trifluoroacetate salt]	≤ 0.5	≤ 0.1
CC(C)c1cnc(-c2cc(-c3cncc(N4CCOCC4)c3)ccn2)[nH]1 [Example 101, 4-(2′-(5-Isopropyl-1H-imidazol-2-yl)-3,4′-bipyridin-5-yl)morpholine trifluoroacetate salt]	≤ 0.5	≤ 0.5
CCS(=O)(=O)n1cc(-c2ccnc(-c3ncc(-c4ccccc4)[nH]3)c2)cn1 [Example 45, 4-(1-(Ethylsulfonyl)-1H-pyrazol-4-yl)-2-(5-phenyl-1H-imidazol-2-yl)pyridine trifluoroacetate salt]	≤ 0.5	≤ 0.5
Cc1[nH]c(-c2cc(-c3cncc(S(C)(=O)=O)c3)ccn2)nc1C(=O)N(C)C [Example 251, N,N,5-Trimethyl-2-[5-(methylsulfonyl)-3,4′-bipyridin-2′-yl]-1H-imidazole-4-carboxamide trifluoroacetate salt]	≤ 0.5	≤ 0.1
Cc1nc(-c2cc(-c3cncc(C(=O)N[C@@H](C)c4ccccc4)c3)ccn2)[nH]c1C [Example 195, 2′-(4,5-Dimethyl-1H-imidazol-2-yl)-N-[(1S)-1-phenylethyl]-3,4′-bipyridine-5-carboxamide trifluoroacetate salt]	≤ 0.5	≤ 0.5
CCCN(C)C(=O)c1cncc(-c2ccnc(-c3nc(C)c(C)[nH]3)c2)c1 [Example 210, 2′-(4,5-Dimethyl-1H-imidazol-2-yl)-N-methyl-N-propyl-3,4′-bipyridine-5-carboxamide]	≤ 0.1	≤ 0.5
Cc1nc(-c2cc(-c3cncc(N)c3)ccn2)[nH]c1C [Example 129, 2′-(4,5-Dimethyl-1H-imidazol-2-yl)-3,4′-bipyridin-5-amine]	≤ 0.1	≤ 0.5
CC(=O)N1CC=C(c2ccnc(-c3nc(C)c(C)[nH]3)c2)C1 [Example 226, 1-(3-(2-(4,5-Dimethyl-1H-imidazol-2-yl)pyridin-4-yl)-2,5-dihydro-1H-pyrrol-1-yl)ethanone trifluoroacetate salt]	> 0.5	> 0.5
c1ccc(-c2cnc(-c3cc(-c4cnn(C5CCOCC5)c4)ccn3)[nH]2)cc1 [Example 47, 2-(5-Phenyl-1H-imidazol-2-yl)-4-(1-(tetrahydro-2H-pyran-4-yl)-1H-pyrazol-4-yl)pyridine trifluoroacetate salt]	≤ 0.5	≤ 0.05
Cc1nc(-c2cc(C3=CCCN(C(=O)c4ccccc4)C3)ccn2)[nH]c1C [Example 222, (3-(2-(4,5-Dimethyl-1H-imidazol-2-yl)pyridin-4-yl)-5,6-dihydropyridin-1(2H)-yl)(phenyl)methanone trifluoroacetate salt]	> 0.5	> 0.5
Cc1nc(-c2cc(-c3cncc(C(=O)N4CCN(C)CC4)c3)ccn2)[nH]c1C [Example 147, (2′-(4,5-Dimethyl-1H-imidazol-2-yl)-3,4′-bipyridin-5-yl)(4-methylpiperazin-1-yl)methanone]	≤ 0.5	≤ 0.5
Cn1ccnc1-c1ccnc(-c2ncc(-c3ccccc3)[nH]2)c1 [Example 16, 4-(1-Methyl-1H-imidazol-2-yl)-2-(5-phenyl-1H-imidazol-2-yl)pyridine trifluoroacetate salt]	> 0.5	> 0.5
COCCCNCc1nc(-c2cc(-c3cncc(N4CCOCC4)c3)ccn2)[nH]c1C [Example 291, 3-Methoxy-N-{[5-methyl-2-(5-morpholin-4-yl-3,4′-bipyridin-2′-yl)-1H-imidazol-4-yl]methyl}propan-1-amine]	> 0.5	≤ 0.05
CN1CCN(c2cncc(-c3ccnc(-c4ncc(-c5ccccc5)[nH]4)c3)c2)CC1 [Example 37, 5-(4-Methylpiperazin-1-yl)-2′-(5-phenyl-1H-imidazol-2-yl)-3,4′-bipyridin trifluoroacetate salt]	> 0.5	> 0.5
CCOC(=O)CCn1cc(-c2ccnc(-c3ncc(-c4ccccc4)[nH]3)c2)cn1 [Example 55, Ethyl 3-(4-(2-(5-phenyl-1H-imidazol-2-yl)pyridin-4-yl)-1H-pyrazol-1-yl)propanoate trifluoroacetate salt]	≤ 0.5	≤ 0.5
COc1cncc(-c2ccnc(-c3nc(C(=O)O)c(C(F)(F)F)[nH]3)c2)c1 [Example 81, 2-(5-Methoxy-3,4′-bipyridin-2′-yl)-5-(trifluoromethyl)-1H-imidazole-4-carboxylic acid trifluoroacetate salt]	> 0.5	> 0.5
Cc1[nH]c(-c2cc(-c3cncc(N4CCOCC4)c3)ccn2)nc1Nc1ccnnc1 [Example 308, N-[5-Methyl-2-(5-morpholin-4-yl-3,4′-bipyridin-2′-yl)-1H-imidazol-4-yl]pyridazin-4-amine trifluoroacetate salt]	≤ 0.5	≤ 0.05
